Test results: BigSolDB 2.1

**Q.** What does the source list for `CC(C)OC(=O)[C@H](C)N[P@](=O)(Oc1ccccc1)Oc1c(F)c(F)c(F)c(F)c1F`?
**A.** solubility (mole fraction) (in acetone, 278.15 K): 0.00921; solubility (mole fraction) (in acetone, 283.15 K): 0.0111; solubility (mole fraction) (in acetone, 288.15 K): 0.0132; solubility (mole fraction) (in acetone, 293.15 K): 0.0159; solubility (mole fraction) (in acetone, 298.15 K): 0.019; solubility (mole fraction) (in acetone, 303.15 K): 0.0226; solubility (mole fraction) (in acetone, 308.15 K): 0.0268; solubility (mole fraction) (in acetone, 313.15 K): 0.0315; solubility (mole fraction) (in acetone, 318.15 K): 0.0371; solubility (mole fraction) (in acetonitrile, 278.15 K): 0.00297; solubility (mole fraction) (in acetonitrile, 283.15 K): 0.0036; solubility (mole fraction) (in acetonitrile, 288.15 K): 0.00439; solubility (mole fraction) (in acetonitrile, 293.15 K): 0.00538; solubility (mole fraction) (in acetonitrile, 298.15 K): 0.00653; solubility (mole fraction) (in acetonitrile, 303.15 K): 0.00787; solubility (mole fraction) (in acetonitrile, 308.15 K): 0.00941; solubility (mole fraction) (in acetonitrile, 313.15 K): 0.0113; solubility (mole fraction) (in acetonitrile, 318.15 K): 0.0133; solubility (mole fraction) (in ethanol, 278.15 K): 0.0019; solubility (mole fraction) (in ethanol, 283.15 K): 0.00234; solubility (mole fraction) (in ethanol, 288.15 K): 0.00293; solubility (mole fraction) (in ethanol, 293.15 K): 0.00366; solubility (mole fraction) (in ethanol, 298.15 K): 0.00451; solubility (mole fraction) (in ethanol, 303.15 K): 0.00556; solubility (mole fraction) (in ethanol, 308.15 K): 0.00686; solubility (mole fraction) (in ethanol, 313.15 K): 0.00836; solubility (mole fraction) (in ethanol, 318.15 K): 0.0101; solubility (mole fraction) (in ethyl acetate, 278.15 K): 0.0073; solubility (mole fraction) (in ethyl acetate, 283.15 K): 0.00889; solubility (mole fraction) (in ethyl acetate, 288.15 K): 0.0108; solubility (mole fraction) (in ethyl acetate, 293.15 K): 0.0132; solubility (mole fraction) (in ethyl acetate, 298.15 K): 0.0157; solubility (mole fraction) (in ethyl acetate, 303.15 K): 0.0191; solubility (mole fraction) (in ethyl acetate, 308.15 K): 0.0227; solubility (mole fraction) (in ethyl acetate, 313.15 K): 0.0269; solubility (mole fraction) (in ethyl acetate, 318.15 K): 0.032; solubility (mole fraction) (in isopropanol, 278.15 K): 0.00118; solubility (mole fraction) (in isopropanol, 283.15 K): 0.00156; solubility (mole fraction) (in isopropanol, 288.15 K): 0.00204; solubility (mole fraction) (in isopropanol, 293.15 K): 0.00265; solubility (mole fraction) (in isopropanol, 298.15 K): 0.00343; solubility (mole fraction) (in isopropanol, 303.15 K): 0.00431; solubility (mole fraction) (in isopropanol, 308.15 K): 0.00545; solubility (mole fraction) (in isopropanol, 313.15 K): 0.00692; solubility (mole fraction) (in isopropanol, 318.15 K): 0.00875; solubility (mole fraction) (in methanol, 278.15 K): 0.0023; solubility (mole fraction) (in methanol, 283.15 K): 0.0028; solubility (mole fraction) (in methanol, 288.15 K): 0.00347; solubility (mole fraction) (in methanol, 293.15 K): 0.00423; solubility (mole fraction) (in methanol, 298.15 K): 0.00519; solubility (mole fraction) (in methanol, 303.15 K): 0.00632; solubility (mole fraction) (in methanol, 308.15 K): 0.00766; solubility (mole fraction) (in methanol, 313.15 K): 0.00927; solubility (mole fraction) (in methanol, 318.15 K): 0.0111; solubility (mole fraction) (in n-butanol, 278.15 K): 0.000812; solubility (mole fraction) (in n-butanol, 283.15 K): 0.0011; solubility (mole fraction) (in n-butanol, 288.15 K): 0.00152; solubility (mole fraction) (in n-butanol, 293.15 K): 0.00198; solubility (mole fraction) (in n-butanol, 298.15 K): 0.00267; solubility (mole fraction) (in n-butanol, 303.15 K): 0.00348; solubility (mole fraction) (in n-butanol, 308.15 K): 0.00463; solubility (mole fraction) (in n-butanol, 313.15 K): 0.00609; solubility (mole fraction) (in n-butanol, 318.15 K): 0.00789; solubility (mole fraction) (in n-propanol, 278.15 K): 0.00144; solubility (mole fraction) (in n-propanol, 283.15 K): 0.00191; solubility (mole fraction) (in n-propanol, 288.15 K): 0.00246; solubility (mole fraction) (in n-propanol, 293.15 K): 0.00311; solubility (mole fraction) (in n-propanol, 298.15 K): 0.0039; solubility (mole fraction) (in n-propanol, 303.15 K): 0.0049; solubility (mole fraction) (in n-propanol, 308.15 K): 0.00608; solubility (mole fraction) (in n-propanol, 313.15 K): 0.00748; solubility (mole fraction) (in n-propanol, 318.15 K): 0.00927; solubility (mole fraction) (in toluene, 278.15 K): 0.00381; solubility (mole fraction) (in toluene, 283.15 K): 0.00469; solubility (mole fraction) (in toluene, 288.15 K): 0.00572; solubility (mole fraction) (in toluene, 293.15 K): 0.00696; solubility (mole fraction) (in toluene, 298.15 K): 0.00848; solubility (mole fraction) (in toluene, 303.15 K): 0.0103; solubility (mole fraction) (in toluene, 308.15 K): 0.0125; solubility (mole fraction) (in toluene, 313.15 K): 0.0151; solubility (mole fraction) (in toluene, 318.15 K): 0.0181; solubility (mole fraction) (in water, 278.15 K): 2.39e-05; solubility (mole fraction) (in water, 283.15 K): 3.23e-05; solubility (mole fraction) (in water, 288.15 K): 4.42e-05; solubility (mole fraction) (in water, 293.15 K): 6.06e-05; solubility (mole fraction) (in water, 298.15 K): 7.96e-05; solubility (mole fraction) (in water, 303.15 K): 0.000106; solubility (mole fraction) (in water, 308.15 K): 0.000137; solubility (mole fraction) (in water, 313.15 K): 0.000182; solubility (mole fraction) (in water, 318.15 K): 0.000235
